The record followed here is ChEMBL document CHEMBL4680157, “Design, synthesis and biological evaluation of novel TRβ selective agonists sustained by ADME-toxicity analysis” (Eur J Med Chem, 2020).

The structures appear in SMILES notation. Some results are limits rather than exact numbers.

Series [1] can be described thus: Cytotoxicity against human U2OS cells assessed as cell growth inhibition at 10 uM after 24 hrs relative to control. It is filed as cell-based.
A short description of series [2]: Cytotoxicity against human U2OS cells assessed as cell growth inhibition at 10 uM after 48 hrs relative to control. It is filed as cell-based.
Series [3] in a line: Cytotoxicity against human HEK293 cells assessed as cell growth inhibition at 10 uM after 24 hrs relative to control. It is filed as cell-based.
Series [4] can be described thus: Cytotoxicity against human HEK293 cells assessed as cell growth inhibition at 10 uM after 48 hrs relative to control. It is filed as cell-based.
Series [5] is described as follows: Cytotoxicity against human hTERT cells assessed as cell growth inhibition at 10 uM after 24 hrs relative to control. It is filed as cell-based, hTERT-BJ.
The nature of series [6]: Cytotoxicity against human hTERT cells assessed as cell growth inhibition at 10 uM after 48 hrs relative to control. It is filed as cell-based, hTERT-BJ.
Series [7] in a line: Cytotoxicity against human MCF7 cells assessed as cell growth inhibition at 10 uM after 24 hrs relative to control. It is filed as cell-based.
Series [8] in a line: Cytotoxicity against human MCF7 cells assessed as cell growth inhibition at 10 uM after 48 hrs relative to control. It is filed as cell-based.
In series [9] the target is T1, CYP1A2 (Homo sapiens, UniProt P05177).
T1 sequence (P05177 whole entry): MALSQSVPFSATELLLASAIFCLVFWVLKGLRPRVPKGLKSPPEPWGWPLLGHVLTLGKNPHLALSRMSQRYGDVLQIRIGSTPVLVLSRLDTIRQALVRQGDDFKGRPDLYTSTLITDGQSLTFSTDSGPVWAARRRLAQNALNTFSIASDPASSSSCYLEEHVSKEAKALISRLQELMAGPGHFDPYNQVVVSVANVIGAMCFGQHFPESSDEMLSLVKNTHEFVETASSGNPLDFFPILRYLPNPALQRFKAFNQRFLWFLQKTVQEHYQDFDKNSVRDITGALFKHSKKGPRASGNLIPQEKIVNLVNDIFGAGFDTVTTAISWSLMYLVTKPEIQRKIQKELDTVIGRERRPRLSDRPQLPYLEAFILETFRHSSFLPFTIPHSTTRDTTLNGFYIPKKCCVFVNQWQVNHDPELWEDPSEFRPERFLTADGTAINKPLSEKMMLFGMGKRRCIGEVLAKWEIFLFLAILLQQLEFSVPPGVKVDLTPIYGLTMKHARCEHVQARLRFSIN
Put plainly: Inhibition of CYP1A2 (unknown origin) at 10 uM relative to control. It is filed as ADME.

Series [10] concerns the target CYP2C9 (Homo sapiens, UniProt P11712). Put plainly: Inhibition of CYP2C9 (unknown origin) at 10 uM relative to control. It is filed as ADME.
Series [11] deals with CYP2C19 (Homo sapiens, UniProt P33261). Nature of the series: Inhibition of CYP2C19 (unknown origin) at 10 uM relative to control. It is filed as ADME.
Sequence of CYP2C19 (P33261 whole entry): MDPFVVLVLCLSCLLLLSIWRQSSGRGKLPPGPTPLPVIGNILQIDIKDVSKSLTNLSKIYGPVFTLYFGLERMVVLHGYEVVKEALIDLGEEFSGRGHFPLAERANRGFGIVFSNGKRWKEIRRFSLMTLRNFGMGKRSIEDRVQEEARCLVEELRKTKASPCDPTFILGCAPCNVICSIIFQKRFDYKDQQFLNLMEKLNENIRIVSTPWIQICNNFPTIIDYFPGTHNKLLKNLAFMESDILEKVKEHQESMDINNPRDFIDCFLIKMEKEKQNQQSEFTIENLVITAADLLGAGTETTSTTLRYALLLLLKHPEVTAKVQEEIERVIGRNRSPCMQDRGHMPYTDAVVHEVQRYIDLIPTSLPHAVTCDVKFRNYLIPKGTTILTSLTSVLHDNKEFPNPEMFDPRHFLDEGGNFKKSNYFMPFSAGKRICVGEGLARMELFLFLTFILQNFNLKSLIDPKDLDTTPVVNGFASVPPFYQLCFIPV
Series [12] deals with CYP2D6 (Homo sapiens, UniProt P10635). Put plainly: Inhibition of CYP2D6 (unknown origin) at 10 uM relative to control. It is filed as ADME.
In series [13] the target is CYP3A4 (Homo sapiens, UniProt P08684). Put plainly: Inhibition of CYP3A4 (unknown origin) at 10 uM relative to control. It is filed as ADME.
Sequence of CYP3A4 (P08684 whole entry): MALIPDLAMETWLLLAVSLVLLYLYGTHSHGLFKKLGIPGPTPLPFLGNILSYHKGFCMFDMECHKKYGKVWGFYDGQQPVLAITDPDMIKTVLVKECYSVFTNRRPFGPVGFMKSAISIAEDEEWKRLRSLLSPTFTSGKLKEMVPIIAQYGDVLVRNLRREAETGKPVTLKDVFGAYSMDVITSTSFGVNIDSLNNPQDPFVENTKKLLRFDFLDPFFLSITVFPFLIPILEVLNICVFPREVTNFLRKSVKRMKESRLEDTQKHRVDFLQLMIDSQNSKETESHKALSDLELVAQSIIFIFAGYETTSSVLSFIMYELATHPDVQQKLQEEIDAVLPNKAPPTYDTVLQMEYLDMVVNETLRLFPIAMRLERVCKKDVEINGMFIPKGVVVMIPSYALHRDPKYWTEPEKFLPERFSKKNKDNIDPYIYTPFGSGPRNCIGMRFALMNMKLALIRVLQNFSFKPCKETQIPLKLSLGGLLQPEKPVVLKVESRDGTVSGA
For series [14], the target named is hERG (KCNH2) (Homo sapiens, UniProt Q12809). Nature of the series: Inhibition of human ERG at 10 uM by fluorescence polarization assay relative to control. (In fluorescence polarisation assays a small probe gives low polarisation when free and higher when bound to something large.)
Sequence of hERG (KCNH2) (Q12809 whole entry): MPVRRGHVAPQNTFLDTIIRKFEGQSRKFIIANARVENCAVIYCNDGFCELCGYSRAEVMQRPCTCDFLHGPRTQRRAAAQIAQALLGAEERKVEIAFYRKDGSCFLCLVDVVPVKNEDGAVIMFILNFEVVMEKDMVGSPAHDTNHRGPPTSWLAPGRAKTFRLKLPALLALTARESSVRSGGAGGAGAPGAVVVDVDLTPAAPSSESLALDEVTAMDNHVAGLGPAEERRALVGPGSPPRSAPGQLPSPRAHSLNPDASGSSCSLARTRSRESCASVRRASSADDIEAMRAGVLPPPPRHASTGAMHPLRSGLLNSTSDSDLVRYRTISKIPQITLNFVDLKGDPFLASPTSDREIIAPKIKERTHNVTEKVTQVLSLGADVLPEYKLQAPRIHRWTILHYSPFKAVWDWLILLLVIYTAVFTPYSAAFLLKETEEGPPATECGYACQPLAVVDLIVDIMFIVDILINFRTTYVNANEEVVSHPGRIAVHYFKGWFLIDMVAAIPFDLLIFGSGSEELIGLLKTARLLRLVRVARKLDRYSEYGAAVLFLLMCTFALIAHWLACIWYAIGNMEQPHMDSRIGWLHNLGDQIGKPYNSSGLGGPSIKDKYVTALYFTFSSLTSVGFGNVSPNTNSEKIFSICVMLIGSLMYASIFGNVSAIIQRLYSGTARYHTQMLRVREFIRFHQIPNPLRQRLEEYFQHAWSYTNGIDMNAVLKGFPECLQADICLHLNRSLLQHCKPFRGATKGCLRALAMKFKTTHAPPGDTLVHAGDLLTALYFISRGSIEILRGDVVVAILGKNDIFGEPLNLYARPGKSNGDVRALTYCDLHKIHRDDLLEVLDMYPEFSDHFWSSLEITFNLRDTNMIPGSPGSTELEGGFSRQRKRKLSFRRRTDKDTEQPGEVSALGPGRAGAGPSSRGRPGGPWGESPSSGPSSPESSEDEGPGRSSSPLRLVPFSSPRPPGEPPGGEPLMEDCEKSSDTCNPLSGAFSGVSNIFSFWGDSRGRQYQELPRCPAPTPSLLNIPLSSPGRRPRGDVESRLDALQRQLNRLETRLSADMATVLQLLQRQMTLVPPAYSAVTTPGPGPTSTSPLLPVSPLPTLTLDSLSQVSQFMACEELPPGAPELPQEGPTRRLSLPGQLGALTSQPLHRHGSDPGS
Series [15] addresses T2, SIRT7 (Homo sapiens, UniProt Q9NRC8).
T2 sequence (Q9NRC8 whole entry): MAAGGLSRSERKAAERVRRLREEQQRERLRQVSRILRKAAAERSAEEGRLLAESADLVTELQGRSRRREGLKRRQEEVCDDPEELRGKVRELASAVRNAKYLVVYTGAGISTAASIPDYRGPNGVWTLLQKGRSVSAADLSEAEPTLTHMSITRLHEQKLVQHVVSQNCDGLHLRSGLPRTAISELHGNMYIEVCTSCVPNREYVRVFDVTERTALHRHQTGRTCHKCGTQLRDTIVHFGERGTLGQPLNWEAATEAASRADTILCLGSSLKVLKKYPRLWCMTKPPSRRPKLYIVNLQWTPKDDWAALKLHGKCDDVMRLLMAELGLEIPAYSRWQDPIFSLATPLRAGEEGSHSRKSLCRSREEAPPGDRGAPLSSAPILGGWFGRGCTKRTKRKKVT
Nature of the series: Inhibition of SIRT7 (unknown origin) at 10 uM relative to control.

For series [16], the target named is HDAC4 (Homo sapiens, UniProt P56524). Put plainly: Inhibition of HDAC4 (unknown origin) at 10 uM relative to control.
Series [17] has as its target T3, HDAC6 (Homo sapiens, UniProt Q9UBN7).
T3 sequence (Q9UBN7 whole entry): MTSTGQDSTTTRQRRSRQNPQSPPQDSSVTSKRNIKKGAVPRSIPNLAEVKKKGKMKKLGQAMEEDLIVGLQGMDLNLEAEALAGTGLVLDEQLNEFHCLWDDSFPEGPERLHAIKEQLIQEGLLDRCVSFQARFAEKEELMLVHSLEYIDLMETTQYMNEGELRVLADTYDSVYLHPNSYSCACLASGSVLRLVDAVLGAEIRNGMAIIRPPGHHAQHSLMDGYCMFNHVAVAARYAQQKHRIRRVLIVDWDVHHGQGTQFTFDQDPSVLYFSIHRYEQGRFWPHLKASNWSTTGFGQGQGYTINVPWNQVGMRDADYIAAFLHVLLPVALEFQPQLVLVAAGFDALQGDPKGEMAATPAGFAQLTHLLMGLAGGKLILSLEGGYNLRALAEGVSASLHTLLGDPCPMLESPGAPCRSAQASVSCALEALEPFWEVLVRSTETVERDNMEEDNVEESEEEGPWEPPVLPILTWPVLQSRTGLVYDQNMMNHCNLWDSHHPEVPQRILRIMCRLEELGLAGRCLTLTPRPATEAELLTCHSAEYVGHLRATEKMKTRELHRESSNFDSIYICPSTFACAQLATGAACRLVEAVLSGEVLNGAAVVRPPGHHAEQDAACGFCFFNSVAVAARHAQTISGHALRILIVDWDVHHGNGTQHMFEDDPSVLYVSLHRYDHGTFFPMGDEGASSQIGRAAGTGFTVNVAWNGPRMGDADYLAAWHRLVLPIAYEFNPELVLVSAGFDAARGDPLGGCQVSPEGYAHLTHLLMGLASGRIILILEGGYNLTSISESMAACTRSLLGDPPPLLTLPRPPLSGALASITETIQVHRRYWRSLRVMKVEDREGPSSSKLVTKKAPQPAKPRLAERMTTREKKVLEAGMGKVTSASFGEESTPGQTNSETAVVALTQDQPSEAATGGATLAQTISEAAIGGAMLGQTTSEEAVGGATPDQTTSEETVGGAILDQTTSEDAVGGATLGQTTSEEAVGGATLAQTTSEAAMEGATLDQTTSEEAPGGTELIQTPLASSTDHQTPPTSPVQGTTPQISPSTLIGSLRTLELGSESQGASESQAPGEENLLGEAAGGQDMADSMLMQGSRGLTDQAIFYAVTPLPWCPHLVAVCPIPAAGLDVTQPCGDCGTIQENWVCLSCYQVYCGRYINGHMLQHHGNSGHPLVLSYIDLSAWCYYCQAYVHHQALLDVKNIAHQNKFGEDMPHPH
Put plainly: Inhibition of HDAC6 (unknown origin) at 10 uM relative to control.

Series [18] concerns the target T4, HDAC8 (Homo sapiens, UniProt Q9BY41).
T4 sequence (Q9BY41 whole entry): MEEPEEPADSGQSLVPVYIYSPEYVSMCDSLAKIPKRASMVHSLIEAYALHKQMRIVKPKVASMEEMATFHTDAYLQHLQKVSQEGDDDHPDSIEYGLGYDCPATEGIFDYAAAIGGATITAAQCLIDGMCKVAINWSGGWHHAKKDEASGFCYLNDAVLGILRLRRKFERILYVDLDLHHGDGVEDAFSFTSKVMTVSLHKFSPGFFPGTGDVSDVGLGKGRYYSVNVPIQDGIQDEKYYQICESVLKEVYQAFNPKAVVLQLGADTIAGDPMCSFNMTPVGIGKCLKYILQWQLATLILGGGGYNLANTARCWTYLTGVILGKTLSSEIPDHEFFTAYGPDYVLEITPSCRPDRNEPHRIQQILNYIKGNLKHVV
Put plainly: Inhibition of HDAC8 (unknown origin) at 10 uM relative to control.

In series [19] the target is HDAC9 (Homo sapiens, UniProt Q9UKV0). Put plainly: Inhibition of HDAC9 (unknown origin) at 10 uM relative to control.
Sequence of HDAC9 (Q9UKV0 whole entry): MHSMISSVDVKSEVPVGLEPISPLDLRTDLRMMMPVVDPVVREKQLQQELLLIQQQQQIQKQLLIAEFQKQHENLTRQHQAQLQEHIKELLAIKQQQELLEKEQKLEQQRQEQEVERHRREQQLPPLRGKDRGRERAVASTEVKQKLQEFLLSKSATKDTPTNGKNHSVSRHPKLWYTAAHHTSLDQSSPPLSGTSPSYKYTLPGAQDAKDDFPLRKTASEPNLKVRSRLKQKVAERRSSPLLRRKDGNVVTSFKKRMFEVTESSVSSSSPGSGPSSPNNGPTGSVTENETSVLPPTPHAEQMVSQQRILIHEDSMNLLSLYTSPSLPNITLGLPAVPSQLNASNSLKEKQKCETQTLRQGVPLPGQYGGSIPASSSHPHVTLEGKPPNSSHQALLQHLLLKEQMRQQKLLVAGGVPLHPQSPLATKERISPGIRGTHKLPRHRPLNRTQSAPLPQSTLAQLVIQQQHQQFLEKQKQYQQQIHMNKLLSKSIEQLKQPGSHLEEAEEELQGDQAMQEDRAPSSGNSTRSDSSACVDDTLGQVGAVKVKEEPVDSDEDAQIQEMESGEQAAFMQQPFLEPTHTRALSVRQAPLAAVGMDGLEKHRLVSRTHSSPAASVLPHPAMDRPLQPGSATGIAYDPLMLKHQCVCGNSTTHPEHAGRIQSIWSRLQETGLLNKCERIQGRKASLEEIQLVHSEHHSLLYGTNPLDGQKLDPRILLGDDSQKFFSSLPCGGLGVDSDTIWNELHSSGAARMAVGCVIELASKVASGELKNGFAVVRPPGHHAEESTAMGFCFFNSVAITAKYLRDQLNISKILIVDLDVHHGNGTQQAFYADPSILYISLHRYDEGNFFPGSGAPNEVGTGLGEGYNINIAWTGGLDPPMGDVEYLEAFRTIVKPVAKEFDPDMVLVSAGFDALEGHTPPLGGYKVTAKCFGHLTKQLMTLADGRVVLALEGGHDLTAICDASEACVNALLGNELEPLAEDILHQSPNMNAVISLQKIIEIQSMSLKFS
Series [20] concerns the target 3',5'-cyclic-AMP phosphodiesterase 4C (Homo sapiens) (UniProt Q08493). Put plainly: Inhibition of PDE4C1 (unknown origin) at 10 uM relative to control.
In series [21] the target is Aurora B (Homo sapiens, UniProt Q96GD4). Put plainly: Inhibition of Aurora B (unknown origin) at 10 uM relative to control.
Sequence of Aurora B (Q96GD4 whole entry): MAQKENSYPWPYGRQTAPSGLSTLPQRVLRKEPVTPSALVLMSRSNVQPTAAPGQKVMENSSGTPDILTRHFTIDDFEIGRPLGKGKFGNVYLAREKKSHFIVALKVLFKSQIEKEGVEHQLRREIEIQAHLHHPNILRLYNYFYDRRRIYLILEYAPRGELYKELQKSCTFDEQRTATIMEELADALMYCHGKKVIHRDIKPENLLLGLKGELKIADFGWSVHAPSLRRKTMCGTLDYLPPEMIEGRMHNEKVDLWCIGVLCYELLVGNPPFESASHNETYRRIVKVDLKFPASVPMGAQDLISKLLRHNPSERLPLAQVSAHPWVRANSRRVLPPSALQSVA

Sequence of CYP2C9 (P11712 whole entry): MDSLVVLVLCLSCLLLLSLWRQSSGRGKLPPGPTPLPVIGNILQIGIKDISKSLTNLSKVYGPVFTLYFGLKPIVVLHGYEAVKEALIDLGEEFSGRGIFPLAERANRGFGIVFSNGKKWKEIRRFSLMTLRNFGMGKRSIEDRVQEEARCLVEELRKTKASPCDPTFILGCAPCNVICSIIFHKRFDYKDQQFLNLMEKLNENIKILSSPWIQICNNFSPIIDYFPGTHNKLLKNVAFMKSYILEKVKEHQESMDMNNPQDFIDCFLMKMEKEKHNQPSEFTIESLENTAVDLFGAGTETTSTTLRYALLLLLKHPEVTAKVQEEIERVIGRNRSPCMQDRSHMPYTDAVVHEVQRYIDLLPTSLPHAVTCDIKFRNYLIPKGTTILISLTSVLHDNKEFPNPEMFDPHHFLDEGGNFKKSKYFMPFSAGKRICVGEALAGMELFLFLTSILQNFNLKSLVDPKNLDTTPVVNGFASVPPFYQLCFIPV
Sequence of 3',5'-cyclic-AMP phosphodiesterase 4C (Homo sapiens) (Q08493 whole entry): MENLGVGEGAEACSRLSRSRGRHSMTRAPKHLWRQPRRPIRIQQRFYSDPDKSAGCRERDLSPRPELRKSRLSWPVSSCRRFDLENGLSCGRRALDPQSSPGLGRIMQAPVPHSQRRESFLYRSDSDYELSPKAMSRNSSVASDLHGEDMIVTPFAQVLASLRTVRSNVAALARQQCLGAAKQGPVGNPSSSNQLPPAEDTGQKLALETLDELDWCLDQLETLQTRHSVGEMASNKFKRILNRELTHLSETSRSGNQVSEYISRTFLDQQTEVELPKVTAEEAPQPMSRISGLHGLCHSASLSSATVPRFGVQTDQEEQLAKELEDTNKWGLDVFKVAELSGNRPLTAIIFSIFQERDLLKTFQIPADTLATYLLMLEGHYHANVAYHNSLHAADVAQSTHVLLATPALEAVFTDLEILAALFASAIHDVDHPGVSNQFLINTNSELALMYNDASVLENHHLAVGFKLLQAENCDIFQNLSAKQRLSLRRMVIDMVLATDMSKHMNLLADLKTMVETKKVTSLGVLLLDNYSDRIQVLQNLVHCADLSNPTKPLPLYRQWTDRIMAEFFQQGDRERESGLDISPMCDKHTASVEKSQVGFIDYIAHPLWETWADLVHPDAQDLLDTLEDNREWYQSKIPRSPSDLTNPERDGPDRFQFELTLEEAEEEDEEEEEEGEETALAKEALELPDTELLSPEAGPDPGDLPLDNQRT

In general, inhibition refers to how much of the control response was suppressed. For `CC(=O)Nc1ccc(Cc2ccc(OCC(=O)O)cc2)cc1C(C)C`, the inhibition at 24 h, 10 µM in series [1], in series [3], in series [5] and in series [7] was below 50% each time. Further, the inhibition at 48 h, 10 µM in series [2], in series [4], in [6] and in series [8] was below 50% throughout. Also, the inhibition at 10 µM in [9] was below 50%; in [10], below 50%; in [11], below 50%; in series [12], below 50%; in series [13] it was below 50%; in series [14] it was below 40%. The inhibition at 10 µM in [15], in series [16], in series [17], in [18], in series [19] and in [21] was below 50% in each case. This compound registered an inhibition in series [20] below 50%.
Take `Nc1ccc(Cc2ccc(OCC(=O)O)cc2F)cc1`: the inhibition at 24 h, 10 µM in [1], in series [3], in series [5] and in series [7] was below 50% each time. In addition, the inhibition at 48 h, 10 µM in [2], in series [4], in series [6] and in series [8] was below 50% each time. The inhibition at 10 µM in series [9] was below 50%; in series [10], 51%; in series [11], below 50%; in [12], below 50%; in [13], below 50%; in series [14], above 91%. Also, the inhibition at 10 µM in [15], in series [16], in [17], in [18], in series [19] and in series [21] was below 50% each time. The inhibition in series [20] was below 50%.
Consider `CCNc1ccc(Cc2c(C)cc(OCC(=O)O)cc2C)cc1C(C)C`, for which the inhibition at 24 h, 10 µM in [1], in [3], in [5] and in series [7] was below 50% in each case. Besides, the inhibition at 48 h, 10 µM in [2], in series [4], in [6] and in series [8] was below 50% in each case. The inhibition at 10 µM is 51% in [9]; above 91% in series [10]; above 91% in series [11]; 51% in [12]; above 91% in series [13]; 51% in series [14]. The inhibition at 10 µM in [15], in [16], in series [17], in [18], in series [19] and in series [21] was below 50% in each case. Moreover, the inhibition in series [20] was below 50%.
`Cc1cc(OCC(=O)O)cc(C)c1Cc1ccc(N)cc1`: the inhibition at 24 h, 10 µM in series [1], in series [3], in series [5] and in [7] was below 50% in each case. Besides, the inhibition at 48 h, 10 µM in series [2], in [4], in [6] and in [8] was below 50% in each case. The inhibition at 10 µM in series [9] was below 50%; in [10] it was below 50%; in [11], below 50%; in series [12] it was below 50%; in [13], below 50%; in series [14], below 25%. In addition, the inhibition at 10 µM in series [15], in series [16], in series [17], in series [18], in [19] and in series [21] was below 50% each time. This compound came in with an inhibition in [20] below 50%.
